The conditions of the data set: Ring tensiometer.

SMILES strings stand for the structures. ± gives the expanded uncertainty stated by the source.

As usually defined, the surface tension liquid-gas is the work needed to enlarge the surface of a liquid by unit area. With `CCCCCC[n+]1ccn(C)c1.O=S(=O)([N-]S(=O)(=O)C(F)(F)F)C(F)(F)F`, the surface tension liquid-gas was 32.31 ± 0.61 mN/m (293.15 K); 31.76 ± 0.6 mN/m (303.15 K); 31.2 ± 0.59 mN/m (313.15 K); 30.6 ± 0.58 mN/m (323.15 K); 30.16 ± 0.57 mN/m (333.15 K); 29.62 ± 0.56 mN/m (343.15 K).
Turning to `CCCC[n+]1ccn(C)c1.O=S(=O)([N-]S(=O)(=O)C(F)(F)F)C(F)(F)F`, the surface tension liquid-gas turned out to be 33.6 ± 0.63 mN/m (293.15 K); 33.09 ± 0.62 mN/m (303.15 K); 32.5 ± 0.61 mN/m (313.15 K); 31.92 ± 0.6 mN/m (323.15 K); 31.35 ± 0.59 mN/m (333.15 K); 30.9 ± 0.58 mN/m (343.15 K).
With `CCCCCn1cc[n+](C)c1.O=S(=O)([N-]S(=O)(=O)C(F)(F)F)C(F)(F)F`, the surface tension liquid-gas was 32.9 ± 0.62 mN/m (293.15 K); 32.41 ± 0.61 mN/m (303.15 K); 31.83 ± 0.6 mN/m (313.15 K); 31.27 ± 0.59 mN/m (323.15 K); 30.77 ± 0.58 mN/m (333.15 K); 30.31 ± 0.58 mN/m (343.15 K).
With `CCCCCCCCCCn1cc[n+](C)c1.O=S(=O)([N-]S(=O)(=O)C(F)(F)F)C(F)(F)F`, the surface tension liquid-gas is, setting by setting: (293.15 K) 32.12 ± 0.6 mN/m; (303.15 K) 31.34 ± 0.59 mN/m; (313.15 K) 30.7 ± 0.58 mN/m; (323.15 K) 30.1 ± 0.57 mN/m; (333.15 K) 29.5 ± 0.56 mN/m; (343.15 K) 28.68 ± 0.55 mN/m.
Turning to `CCCCCCCn1cc[n+](C)c1.O=S(=O)([N-]S(=O)(=O)C(F)(F)F)C(F)(F)F`, the surface tension liquid-gas is listed as 32 ± 0.6 mN/m (293.15 K); 31.36 ± 0.59 mN/m (303.15 K); 30.66 ± 0.58 mN/m (313.15 K); 30.02 ± 0.57 mN/m (323.15 K); 29.5 ± 0.56 mN/m (333.15 K); 28.95 ± 0.55 mN/m (343.15 K). Also, for the setting “353.15 K”, the surface tension liquid-gas is on record as 28.29 ± 0.54 mN/m.
For `CCn1cc[n+](C)c1.O=S(=O)([N-]S(=O)(=O)C(F)(F)F)C(F)(F)F`, the surface tension liquid-gas is, setting by setting: (293.15 K) 36.94 ± 0.68 mN/m; (303.15 K) 36.43 ± 0.67 mN/m; (313.15 K) 35.92 ± 0.66 mN/m; (323.15 K) 35.51 ± 0.66 mN/m; (333.15 K) 34.96 ± 0.65 mN/m; (343.15 K) 34.57 ± 0.64 mN/m.
Consider `CCCCCCCCn1cc[n+](C)c1.O=S(=O)([N-]S(=O)(=O)C(F)(F)F)C(F)(F)F`, for which the surface tension liquid-gas is, setting by setting: (293.15 K) 31.93 ± 0.6 mN/m; (303.15 K) 31.3 ± 0.59 mN/m; (313.15 K) 30.57 ± 0.58 mN/m; (323.15 K) 29.98 ± 0.57 mN/m; (333.15 K) 29.4 ± 0.56 mN/m; (343.15 K) 28.86 ± 0.55 mN/m.
Consider `CCCn1cc[n+](C)c1.O=S(=O)([N-]S(=O)(=O)C(F)(F)F)C(F)(F)F`, for which the surface tension liquid-gas was 34.87 ± 0.65 mN/m (293.15 K); 34.22 ± 0.64 mN/m (303.15 K); 33.73 ± 0.63 mN/m (313.15 K); 33.31 ± 0.62 mN/m (323.15 K); 32.79 ± 0.61 mN/m (333.15 K); 32.18 ± 0.6 mN/m (343.15 K).
